{"source": "patent US20210338692A1", "about": "“A 19-NOR C3,3-DISUBSTITUTED C21-N-PYRAZOLYL STEROID AND METHODS OF USE THEREOF” (SAGE THERAPEUTICS, INC., priority 2018, published 2021)", "key": {"[1]": {"system": "subjects with MDD", "test": "Earlier clinical studies of Compound 1 in subjects with MDD (Phase 2 study, previous clinical trials)"}, "[2]": {"system": "female subjects diagnosed with severe postpartum depression", "test": "Placebo-controlled study of Compound 1 in postpartum depression (HAM-D, MADRS, HAM-A, CGI-I)", "format": "in vivo, human", "details": "30 mg once a day for 15 days", "experimental": "Compound 1 was investigated for use in subjects with depression. Female subjects (18-65 years old) diagnosed with severe postpartum depression (PDD) with a HAM-D total score of greater than or equal to 26 at screening and Day 1 were used in the investigation. The subjects were dosed once per day with capsules containing 30 mg of Compound 1. The dose could be adjusted to capsules containing 20 mg of Compound 1 if the 30 mg dose was not tolerated. Subjects not dosed with Compound 1 were dosed with a placebo. In total, 78 subjects were treated with Compound 1 at 30 mg and 73 subjects were treated with placebo.\nAssuming a 2-sided test at an alpha level of 0.05, a sample size of approximately 65 evaluable subjects per treatment group provided 90% power to detect a placebo-adjusted treatment difference of approximately 4 points in the primary endpoint, change from baseline in HAM-D total score at Day 15 assuming standard deviation (SD) of 7 points. The change from baseline in the HAM-D total score was analyzed using a mixed effects model for repeated measures (MMRM). The model included the change from baseline at each visit as the dependent variable. The main comparison was (difference in least mean square [LSMEAN]) between Compound 1 Capsules and placebo at the 15-day timepoint. […]"}, "[3]": {"system": "synaptic and extrasynaptic GABAA receptors", "details": "cited from earlier work"}}, "data": [{"smiles": "C[C@@]1(O)CC[C@H]2[C@H](CC[C@@H]3[C@@H]2CC[C@]2(C)[C@@H](C(=O)Cn4cc(C#N)cn4)CC[C@@H]32)C1", "note": "[Compound 1]", "values": [{"measurement": "efficacy and tolerability of the dose level", "setting": "[1]; 30 mg per day, Phase 2 study in subjects with MDD", "value": "efficacious and well-tolerated"}, {"measurement": "subjects with HAM-D score of 16 to 21 among those achieving remission or response at Day 15", "setting": "[1]; Day 42", "value": 18.2, "unit": "%"}, {"measurement": "subjects with HAM-D≥22 among those achieving remission or response at Day 15", "setting": "[1]; Day 42", "value": 6.1, "unit": "%"}, {"measurement": "adverse effect when administered in the morning", "setting": "[1]; previous clinical trials, administered in the morning", "value": "sedation/somnolence observed"}, {"measurement": "tolerability when given in the evening", "setting": "[1]; previous clinical trials, given in the evening", "value": "improved tolerability"}, {"measurement": "overall efficacy in postpartum depression compared to placebo", "setting": "[2]", "value": "effective at treating postpartum depression"}, {"measurement": "mode of action at GABAA receptors", "setting": "[3]", "value": "positive allosteric modulator of GABAA receptors"}]}]}
